The text below walks through data of patent US7517911B2, “3,4,5-trimethoxy phenyl-based ester compound and preparation method thereof and whitening cosmetic composition containing the same” (Amorepacific Corporation, priority 2001, dated 2009).

One series concerns Mel-Ab cells. Kind of series: Melanin-inhibiting effect in the melanocytes (Dooley method). It is filed as cell-based, C57BL/6. The following applies: 10 ppm in culture medium, absorbance at 400 nm, compared with cells cultured without compound.
The test system of another series is rabbit skin. Kind of series: Test for skin irritation on animals (Draize P.I.I.). It is filed as in vivo, rabbits. The following applies: 1% diluted solution, 0.5 ml; for P.I.I.: measured 24 and 72 hours after application. As for the experimental part: The hairs on the backs of six (6) healthy male rabbits were removed. After making areas of 2.5 cm×2.5 cm on the left and right sides of the back of each rabbit, nothing was applied on the left area of the back as control area, and 1% diluted solutions of the ester compounds of Examples 1˜6 (solvent was 1,3-butyleneglycol:ethanol=7:3) were applied on the right area of the back of the rabbits with an amount of 0.5 ml, one compound for each rabbit respectively. Irritations such as erythema, rash or edema were measured 24 hours and 72 hours after the application. In addition, the degree of irritation was determined according to the conventional, “P.I.I.” (Primary Irritation Index) of Draize, and the results are shown in Table 6.

Series [1] has as its system human skin. In words: Whitening effect on the human skin (UVB-induced pigmentation, Chromameter). Format: in vivo. The conditions noted are these: applied for 10 weeks after UVB, 12 male volunteers. From the text:
The brachia of twelve (12) healthy volunteers (males) were attached with opaque tape having 1.5 cm diameter holes, and then irradiated with UVB (ultraviolet rays B) in 1.5˜2 times the intensity of the minimum amount to form erythema for each volunteer, to induce pigmentation. After irradiating the UVB, 1% diluted solutions of the ester compounds of Examples 1˜6 (solvent was 1,3-butyleneglycol:ethanol=7:3) were applied on the above treated brachia for ten (10) weeks (the above 1% diluted solution was not applied on one brachium), and the colors of the skins thereof were measured by Chromameter CR2002 (manufactured by Minolta; Japan) per every one week. The difference of “L”, that is, “Δ L”, the amount of the increase of brightness of skin compared with those not applied with diluted solution, was measured. For reference, measurements for the cases that 3% kojic acid and vehicle (solvent) were applied were performed.

Another series relates to guinea pig skin. Kind of series: Test for radiation toxicity (UVA). Format: in vivo. As for the experimental part: The hairs on the backs of ten (10) guinea pigs were removed. After fixing the pigs, the back was divided into six (6) areas each having 2.0 cm×2.0 cm area, three (3) areas on the left side and three (3) on the right side. Right side areas were control areas prevented from being radiated, and left side areas were radiation areas. 1% (w/v) diluted solutions of ester compounds of Examples 1˜6 were applied thereto with an equal amount of 50 μl respectively, while using vehicle (1,3-butyleneglycol:ethanol=7:3) as a negative control, and using 0.1% 8-MOP(methoxypsoralene) as a positive control. After 30 minutes later, left sides of the back of the pig was shielded from light by aluminum foil, and UVA(320˜380 nm) was radiated from 10 cm distant with an final energy of 15J/cm^2 by using ultraviolet radiation device (waldmann). The skin of the guinea pig was observed after 24, 48 and 72 hours later. The irritation was graded as shown in table 5 with 0˜4 grades according to the intensity of the erythema and edema, and the sum was calculated. In the evaluation, the maximum value of the measurement that performed after 24, 48 and 72 hours later was chosen, and then the Irritation Index of an animal skin was calculated according to mathematical formula 1, and finally, the Radiation Toxicity Index was calculated according to mathematical Formula 2. Irritation Index of an animal skin=(Σ maximum value of erythema index+Σ maximum value of edema index)/number of animals [Mathematical Formula 1] Radiation Toxicity Index=(Irritation Index of an animal skin in an area of UV radiation)−(Irritation Index of an animal skin in an area UV non-radiation) [Mathematical Formula 2]

Series [2] concerns human skin. Kind of series: Test for application to human skin (patch test, CTFA Guideline). Format: in vivo. The conditions noted are these: for The number of volunteers having reaction, mark +: + = Intense erythema; for The number of volunteers having reaction, mark + / The number of volunteers having reaction, mark ++ / The number of volunteers having reaction, mark +++ / The number of volunteers having reaction, mark ± / The number of volunteers having reaction, mark −: 1% in patch base, n = 30; for The number of volunteers having reaction, mark ++: ++ = Intense erythema with edema; for The number of volunteers having reaction, mark +++: +++ = Intense erythema with edema &vesicle; for The number of volunteers having reaction, mark ±: ± = Mild erythema; for The number of volunteers having reaction, mark −: − = No visible reactions; for Average reaction (n = 30): {(grade × number of volunteers) × 100}/{maximum grade × total volunteers × number of test}, non-irritation standard value 1.0. As for the experimental part: Each of the ester compounds of Examples 1˜6 were dissolved in a patch base shown in Table 8 to be 1% concentration respectively, to prepare test samples. 20 μl of each test sample was dropped in a Finn Chamber to make a patch, and the patch was attached to antebrachial skin (test region) and fixed with micro tape. The patch was attached for 24 hours, and after removing the patch, the test region was checked with marking pen, and then the region was observed after 1 and 24 hours.

Where [3] appears, read: 1% diluted solution (1,3-butyleneglycol:ethanol=7:3).
The mark [4] stands for this setting: 1% (w/v) solution 50 μl, UVA 15J/cm^2, observed 24, 48 and 72 hours.
The mark [5] stands for this setting: 1% (w/v) solution, UVA 15J/cm^2.

In the case of `Cc1ccc(C(C)C)c(O)c1` [Thymol, thymol, reference compound], the “Melanin generation ratio (%)” value in the series with Mel-Ab cells is 94.5%.
Consider “5-methyl-2-(methylethyl)phenyl-3-(3,4,5-trimethoxyphenyl)propanoate [Example 5]”, for which, in the series with rabbit skin, the “Determination (skin irritation)” value was “No irritation” and the P.I.I. is 0.375. The “Increase of brightness of skin (Δ L)” value in the series with human skin [1] (setting [3]) amounted to 1.40 ± 0.12. Also, in the series with guinea pig skin (in vivo), the “Determination (radiation toxicity)” value is reported as “Radiation Non-Toxic” and the “Radiation Toxicity Index” value was 0. Besides, the “Melanin generation ratio (%)” value with Mel-Ab cells is 50.0%. For the same compound, in the series on human skin [2] (24 hours later), the “The number of volunteers having reaction, mark +” value turned out to be 0; the “The number of volunteers having reaction, mark ++” value was determined as 0; the “The number of volunteers having reaction, mark +++” value (shortened to “The number … mark +++”) came to 0; the “The number of volunteers having reaction, mark ±” value (shortened to “The number … mark ±”) amounted to 0. In the series on human skin [2] (24 hours later), the “The number of volunteers having reaction, mark −” value (“The number … mark −” for short) amounted to 30. Further, in the series with human skin [2] (48 hours later), the “The number of volunteers having reaction, mark +” value worked out at 0; the “The number of volunteers having reaction, mark ++” value is reported as 0; the “The number … mark +++” value is listed as 0; the “The number … mark ±” value amounted to 0. In addition, in the series with human skin [2] (48 hours later), the “The number … mark −” value was 30. Further, the “Average reaction (n = 30)” value with human skin [2] was determined as 0.00.
Turning to `COc1cc(CCC(=O)O)cc(OC)c1OC` [3,4,5-trimethoxy hydrocinnamic acid, reference compound], the “Melanin generation ratio (%)” value in the series on Mel-Ab cells was 92.5%.
Turning to `O=c1cc(CO)occ1O` [Kojic acid, kojic acid, reference compound], in the series with human skin [1] (3% kojic acid), the “Increase of brightness of skin (Δ L)” value is listed as 0.99 ± 0.11. Besides, the “Melanin generation ratio (%)” value in the series with Mel-Ab cells stood at 88.0%.
Regarding `Cc1ccc(C(C)C)cc1O` [Carvacrol, carvacrol, reference compound], the “Melanin generation ratio (%)” value with Mel-Ab cells is recorded as 91.5%.
Take `COc1cc(/C=C/C(=O)Oc2cc(C)ccc2C(C)C)cc(OC)c1OC` [Example 3, 5-methyl-2-(methylethyl)phenyl(2E)-3-(3,4,5-trimethoxyphenyl)-2-propanoate]: in the series with rabbit skin, the “Determination (skin irritation)” value is reported as “No irritation” and the P.I.I. was 0.375. The “Increase of brightness of skin (Δ L)” value in the series on human skin [1] (setting [3]) was found to be 1.38 ± 0.11. In addition, in the series on guinea pig skin (setting [4]), the “Radiation Toxicity Index” value amounted to 0. The “Determination (radiation toxicity)” value with guinea pig skin (setting [5]) is “Radiation Non-Toxic”. For the same compound, the “Melanin generation ratio (%)” value in the series with Mel-Ab cells was 45.6%. In the series on human skin [2] (24 hours later), the “The number of volunteers having reaction, mark +” value was 0; the “The number of volunteers having reaction, mark ++” value came to 0; the “The number … mark +++” value was found to be 0; the “The number … mark ±” value is 0. Also, the “The number … mark −” value in the series with human skin [2] (24 hours later) amounted to 30. In the series with human skin [2] (48 hours later), the “The number of volunteers having reaction, mark +” value came to 0; the “The number of volunteers having reaction, mark ++” value turned out to be 0; the “The number … mark +++” value was 0; the “The number … mark ±” value is listed as 0. Also, in the series on human skin [2] (48 hours later), the “The number … mark −” value was found to be 30. The “Average reaction (n = 30)” value in the series on human skin [2] is reported as 0.00.
Turning to `COc1cc(CC(=O)O)cc(OC)c1OC` [3,4,5-trimethoxy phenylacetic acid, reference compound], in the series with Mel-Ab cells, the “Melanin generation ratio (%)” value is 95.8%.
On to `COc1cc(CC(=O)Oc2cc(C)ccc2C(C)C)cc(OC)c1OC` [Example 1], for which, in the series with rabbit skin, the “Determination (skin irritation)” value is listed as “No irritation” and the P.I.I. is on record as 0.375. In addition, in the series on human skin [1] (setting [3]), the “Increase of brightness of skin (Δ L)” value is reported as 1.71 ± 0.25. For the same compound, the “Radiation Toxicity Index” value in the series on guinea pig skin (setting [4]) came out at 0. For the same compound, in the series on guinea pig skin (setting [5]), the “Determination (radiation toxicity)” value was “Radiation Non-Toxic”. Further, the “Melanin generation ratio (%)” value in the series on Mel-Ab cells is given as 47.8%. For the same compound, in the series on human skin [2] (24 hours later), the “The number of volunteers having reaction, mark +” value amounted to 0; the “The number of volunteers having reaction, mark ++” value came out at 0; the “The number … mark +++” value was 0; the “The number … mark ±” value turned out to be 2. In addition, the “The number … mark −” value with human skin [2] (24 hours later) amounted to 28. Also, in the series on human skin [2] (48 hours later), the “The number of volunteers having reaction, mark +” value worked out at 0; the “The number of volunteers having reaction, mark ++” value came to 0; the “The number … mark +++” value was 0; the “The number … mark ±” value is reported as 0. Also, the “The number … mark −” value with human skin [2] (48 hours later) was determined as 30. Also, the “Average reaction (n = 30)” value in the series with human skin [2] amounted to 0.83.
For the compound `COc1cc(C=CC(=O)O)cc(OC)c1OC` [3,4,5-trimethoxy cinnamic acid, reference compound], in the series with Mel-Ab cells, the “Melanin generation ratio (%)” value is 96.3%.
On to “2-methyl-5-(methylethylphenyl)-2-(3,4,5-trimethoxyphenyl)acetate [Example 2]”, for which, in the series with rabbit skin, the “Determination (skin irritation)” value is listed as “No irritation” and the P.I.I. is reported as 0.345. Further, the “Increase of brightness of skin (Δ L)” value in the series with human skin [1] (setting [3]) is listed as 1.51 ± 0.13. Further, in the series with guinea pig skin (in vivo), the “Determination (radiation toxicity)” value is “Radiation Non-Toxic” and the “Radiation Toxicity Index” value was found to be 0. For the same compound, in the series with Mel-Ab cells, the “Melanin generation ratio (%)” value is reported as 51.2%. Moreover, in the series on human skin [2] (24 hours later), the “The number of volunteers having reaction, mark +” value was 0; the “The number of volunteers having reaction, mark ++” value is given as 0; the “The number … mark +++” value was 0; the “The number … mark ±” value worked out at 0. The “The number … mark −” value with human skin [2] (24 hours later) is reported as 30. In the series on human skin [2] (48 hours later), the “The number of volunteers having reaction, mark +” value stood at 0; the “The number of volunteers having reaction, mark ++” value was 0; the “The number … mark +++” value came to 0; the “The number … mark ±” value worked out at 1. Moreover, the “The number … mark −” value with human skin [2] (48 hours later) is reported as 29. Further, the “Average reaction (n = 30)” value in the series with human skin [2] is recorded as 0.42.
Regarding `COc1cc(CCC(=O)Oc2cc(C(C)C)ccc2C)cc(OC)c1OC` [Example 6, 2-methyl-5-(methylethyl)phenyl-3-(3,4,5-trimethoxyphenyl)propanoate], in the series on rabbit skin, the “Determination (skin irritation)” value is given as “No irritation” and the P.I.I. turned out to be 0.315. Moreover, in the series with human skin [1] (setting [3]), the “Increase of brightness of skin (Δ L)” value is reported as 1.49 ± 0.11. Also, the “Radiation Toxicity Index” value in the series with guinea pig skin (setting [4]) came to 0. The “Determination (radiation toxicity)” value with guinea pig skin (setting [5]) is “Radiation Non-Toxic”. Further, the “Melanin generation ratio (%)” value in the series with Mel-Ab cells was determined as 48.1%. Besides, in the series on human skin [2] (24 hours later), the “The number of volunteers having reaction, mark +” value is on record as 0; the “The number of volunteers having reaction, mark ++” value is given as 0; the “The number … mark +++” value turned out to be 0; the “The number … mark ±” value came out at 0. Besides, the “The number … mark −” value with human skin [2] (24 hours later) worked out at 30. In addition, in the series with human skin [2] (48 hours later), the “The number of volunteers having reaction, mark +” value is on record as 0; the “The number of volunteers having reaction, mark ++” value is reported as 0; the “The number … mark +++” value was found to be 0; the “The number … mark ±” value was 0. Moreover, the “The number … mark −” value in the series on human skin [2] (48 hours later) turned out to be 30. Further, the “Average reaction (n = 30)” value with human skin [2] came to 0.00.
